Assay [1] concerns Monochoria vaginalis (Burm. f.) Presl var. plantaginea (Roxb.) Solms-Laub. The experiment in a line: Test 2 paddy pot herbicidal effect with water drainage and feeding. It counts as in vivo. The following applies: water drainage and feeding 2 cm per day for two days, 28th day. On the procedure:
(§1) Further, a tuber of Sagittaria pygmaea Miq. was buried. […] For two days starting from the next day, water drainage and feeding each of 2 cm in depth per day were conducted.

In a further assay the test system is Sagittaria pygmaea Miq. Described as above. It counts as in vivo. The following applies: water drainage and feeding 2 cm per day for two days, 28th day. On the procedure: as §1
In assay [2] the test system is Echinochloa oryzicola vasing. Briefly: Test 3 herbicidal effect, application before germination or at 3-leaf stage. The following applies: 28th day from application.
Assay [3] deals with Monochoria vaginalis (Burm. f.) Presl var. plantaginea (Roxb.) Solms-Laub. Briefly: Test 1 paddy pot herbicidal effect, water surface application. It counts as in vivo. The following applies: applied day after sowing, evaluated 28 days later. An excerpt: (§2) Standard of herbicidal effect (level of suppression of development and growth) […] Herbicidal effect of 90% or more, injury to paddy rice […] Herbicidal effect of 70% or more to less than 90%, injury to paddy rice […] 2: […]

The subject of assay [4] is Echinochloa oryzicola vasing. The assay is described as above. The following applies: applied day after sowing, evaluated 28 days later. The class given is in vivo.
Excerpt: as §2

This note sets out measurements from patent publication US6458748B1, “Di- or tri-fluoromethanesulfonyl anilide derivatives, process for the preparation of them and herbicides containing them as the active ingredient” (Ihara Chemical Industry Co., Ltd., priority 1998, dated 2002).

SMILES strings stand for the structures.

For the compound `COc1cc(OC)nc(C(O)c2ccccc2NS(=O)(=O)C(F)F)n1` (centres unmarked) [Example 1, 2-[(4,6-dimethoxypyrimidine-2-yl)hydroxymethyl]-N-difluoromethanesulfonyl anilide], the “Herbicidal effect Ec” value is 2 (Herbicidal effect of 30% or more to less than 50%, injury to paddy rice) in assay [1] (0.6 g/10 ares); 4 (Herbicidal effect of 70% or more to less than 90%, injury to paddy rice) in assay [1] (1.3 g/10 ares); 5 (Herbicidal effect of 90% or more, injury to paddy rice) in assay [1] (2.5 g/10 ares); 5 (Herbicidal effect of 90% or more, injury to paddy rice) in assay [1] (5.0 g/10 ares); 1 (Herbicidal effect of 10% or more to less than 30%, injury to paddy rice) in assay [4] (0.4 g/10 ares); 3 (Herbicidal effect of 50% or more to less than 70%, injury to paddy rice) in assay [4] (1.6 g/10 ares). In addition, the “Herbicidal effect Ec” value in assay [4] (6.3 g/10 ares) is recorded as 4 (Herbicidal effect of 70% or more to less than 90%, injury to paddy rice); in assay [4] (25.0 g/10 ares), 5 (Herbicidal effect of 90% or more, injury to paddy rice). In addition, the “Herbicidal effect Sc” value in the assay with Sagittaria pygmaea Miq. (0.6 g/10 ares) is on record as 2 (Herbicidal effect of 30% or more to less than 50%, injury to paddy rice); with Sagittaria pygmaea Miq. (1.3 g/10 ares), 5 (Herbicidal effect of 90% or more, injury to paddy rice); with Sagittaria pygmaea Miq. (2.5 g/10 ares), 5 (Herbicidal effect of 90% or more, injury to paddy rice); in the assay with Sagittaria pygmaea Miq. (5.0 g/10 ares) it was 5 (Herbicidal effect of 90% or more, injury to paddy rice). In addition, the “Herbicidal effect (Ec) Application at 3-leaf stage” value (from here on “Herbicidal effect … at 3-leaf stage”) is reported as 0 (Herbicidal effect of less than 10%, injury to paddy rice) in assay [2] (0.3 g/10 ares); 1 (Herbicidal effect of 10% or more to less than 30%, injury to paddy rice) in assay [2] (0.6 g/10 ares); 2 (Herbicidal effect of 30% or more to less than 50%, injury to paddy rice) in assay [2] (1.3 g/10 ares); 4 (Herbicidal effect of 70% or more to less than 90%, injury to paddy rice) in assay [2] (2.5 g/10 ares); 5 (Herbicidal effect of 90% or more, injury to paddy rice) in assay [2] (5.0 g/10 ares). Further, the “Herbicidal effect (Ec) Application before germination” value in assay [2] (0.3 g/10 ares) was 1 (Herbicidal effect of 10% or more to less than 30%, injury to paddy rice); in assay [2] (0.6 g/10 ares), 2 (Herbicidal effect of 30% or more to less than 50%, injury to paddy rice); in assay [2] (1.3 g/10 ares) it was 3 (Herbicidal effect of 50% or more to less than 70%, injury to paddy rice); in assay [2] (2.5 g/10 ares), 5 (Herbicidal effect of 90% or more, injury to paddy rice); in assay [2] (5.0 g/10 ares), 5 (Herbicidal effect of 90% or more, injury to paddy rice). The “Herbicidal effect Mo” value in assay [3] (0.4 g/10 ares) is 5 (Herbicidal effect of 90% or more, injury to paddy rice); in assay [3] (1.6 g/10 ares) it was 5 (Herbicidal effect of 90% or more, injury to paddy rice); in assay [3] (6.3 g/10 ares) it was 5 (Herbicidal effect of 90% or more, injury to paddy rice); in assay [3] (25.0 g/10 ares), 5 (Herbicidal effect of 90% or more, injury to paddy rice).

For `CCc1cccc(C(O)c2nc(OC)cc(OC)n2)c1NS(=O)(=O)C(F)F` (centres unmarked) [Example 3, 2-[(4,6-dimethoxypyrimidine-2-yl)hydroxymethyl]-6-ethyl-N-difluoromethanesulfonyl anilide], the “Herbicidal effect … at 3-leaf stage” value in assay [2] (0.3 g/10 ares) was 2 (Herbicidal effect of 30% or more to less than 50%, injury to paddy rice); in assay [2] (0.6 g/10 ares), 4 (Herbicidal effect of 70% or more to less than 90%, injury to paddy rice); in assay [2] (1.3 g/10 ares) it was 5 (Herbicidal effect of 90% or more, injury to paddy rice); in assay [2] (2.5 g/10 ares), 5 (Herbicidal effect of 90% or more, injury to paddy rice); in assay [2] (5.0 g/10 ares), 5 (Herbicidal effect of 90% or more, injury to paddy rice). The “Herbicidal effect (Ec) Application before germination” value in assay [2] (0.3 g/10 ares) was 4 (Herbicidal effect of 70% or more to less than 90%, injury to paddy rice); in assay [2] (0.6 g/10 ares), 5 (Herbicidal effect of 90% or more, injury to paddy rice); in assay [2] (1.3 g/10 ares), 5 (Herbicidal effect of 90% or more, injury to paddy rice); in assay [2] (2.5 g/10 ares), 5 (Herbicidal effect of 90% or more, injury to paddy rice); in assay [2] (5.0 g/10 ares) it was 5 (Herbicidal effect of 90% or more, injury to paddy rice). Besides, the “Herbicidal effect Mo” value in assay [3] (0.4 g/10 ares) is listed as 5 (Herbicidal effect of 90% or more, injury to paddy rice); in assay [3] (1.6 g/10 ares) it was 5 (Herbicidal effect of 90% or more, injury to paddy rice); in assay [3] (6.3 g/10 ares) it was 5 (Herbicidal effect of 90% or more, injury to paddy rice); in assay [3] (25.0 g/10 ares) it was 5 (Herbicidal effect of 90% or more, injury to paddy rice). Further, the “Herbicidal effect Ec” value in assay [4] (0.4 g/10 ares) is 4 (Herbicidal effect of 70% or more to less than 90%, injury to paddy rice); in assay [4] (1.6 g/10 ares) it was 5 (Herbicidal effect of 90% or more, injury to paddy rice); in assay [4] (6.3 g/10 ares), 5 (Herbicidal effect of 90% or more, injury to paddy rice); in assay [4] (25.0 g/10 ares), 5 (Herbicidal effect of 90% or more, injury to paddy rice).

On to `COCc1cccc(C(O)c2nc(OC)cc(OC)n2)c1NS(=O)(=O)C(F)F` (centres unmarked) [Example 2, 2-[(4,6-dimethoxypyrimidine-2-yl)hydroxymethyl]-6-methoxymethyl-N-difluoromethanesulfonyl anilide], for which the “Herbicidal effect … at 3-leaf stage” value in assay [2] (0.3 g/10 ares) is given as 3 (Herbicidal effect of 50% or more to less than 70%, injury to paddy rice); in assay [2] (0.6 g/10 ares) it was 4 (Herbicidal effect of 70% or more to less than 90%, injury to paddy rice); in assay [2] (1.3 g/10 ares), 5 (Herbicidal effect of 90% or more, injury to paddy rice); in assay [2] (2.5 g/10 ares) it was 5 (Herbicidal effect of 90% or more, injury to paddy rice); in assay [2] (5.0 g/10 ares) it was 5 (Herbicidal effect of 90% or more, injury to paddy rice). For the same compound, the “Herbicidal effect (Ec) Application before germination” value is on record as 4 (Herbicidal effect of 70% or more to less than 90%, injury to paddy rice) in assay [2] (0.3 g/10 ares); 5 (Herbicidal effect of 90% or more, injury to paddy rice) in assay [2] (0.6 g/10 ares); 5 (Herbicidal effect of 90% or more, injury to paddy rice) in assay [2] (1.3 g/10 ares); 5 (Herbicidal effect of 90% or more, injury to paddy rice) in assay [2] (2.5 g/10 ares); 5 (Herbicidal effect of 90% or more, injury to paddy rice) in assay [2] (5.0 g/10 ares). The “Herbicidal effect Mo” value in assay [3] (0.4 g/10 ares) is listed as 5 (Herbicidal effect of 90% or more, injury to paddy rice); in assay [3] (1.6 g/10 ares), 5 (Herbicidal effect of 90% or more, injury to paddy rice); in assay [3] (6.3 g/10 ares) it was 5 (Herbicidal effect of 90% or more, injury to paddy rice); in assay [3] (25.0 g/10 ares), 5 (Herbicidal effect of 90% or more, injury to paddy rice). The “Herbicidal effect Ec” value in assay [4] (0.4 g/10 ares) is 4 (Herbicidal effect of 70% or more to less than 90%, injury to paddy rice); in assay [4] (1.6 g/10 ares), 5 (Herbicidal effect of 90% or more, injury to paddy rice); in assay [4] (6.3 g/10 ares), 5 (Herbicidal effect of 90% or more, injury to paddy rice); in assay [4] (25.0 g/10 ares), 5 (Herbicidal effect of 90% or more, injury to paddy rice).
